Data taken from US20080014162A1, “Method to treat skin in need of a calmative using at least one C-Glycoside derivative” (L'OREAL, priority 2006, published 2008).

What was measured:
[1] = system: interleukin-8 secreted by normal human epidermal keratinocytes (NHEK); test: Assay of IL8 without stimulation in normal human epidermal keratinocytes; assay type: cell-based; conditions: concentration 2%
Description: Dermatol., 102: 915-922 (1994)].

[2] = system: interleukin-8 secreted by normal human epidermal keratinocytes (NHEK) after stimulation with retinol; test: Assay of IL8 + stimulation with retinol in normal human epidermal keratinocytes (anti-irritant effect); conditions: for % blank (+retinol): IL8 as % of blank (+retinol); for IL8: 24 hours at 37° C.
Description: This test allows evaluation of the anti-irritant potential of various molecules, on a human keratinocyte (NHEK) cell line. In this test, an irritant situation is mimicked by exacerbating the production of IL-8 by the NHEKs by addition of retinol to the culture medium, Il-8 being involved in the initiation of keratinocyte irritation. Next, the anti-irritant effect of a C-glycoside compound is measured by means of its inhibitory action with respect to this exacerbated production.
Normal human epidermal keratinocytes are incubated in the presence of 10^−6 M retinol for 24 hours at 37° C. In response to the retinol, the production of the chemotactic agent interleukine 8 (IL-8) is measured via enzymatic assay using an assay kit (Elisa D8050) sold by the company R&D. The absorbance values are measured with a microplate reader (MRX/Dynatech) according to the procedures supplied with the assay kit.
A control test is also performed with dexamethasone, which is a reference calmative.
The results are expressed as a percentage of the control values after subtracting the background noise and as a percentage of inhibition of these values obtained in the presence of the compounds.

[3] = NHEK + 10^−6 M retinol, 24 hours, concentration 2%

With `CC(O)C[C@@H]1OC[C@@H](O)[C@H](O)[C@H]1O` (stereo partly drawn) [C-β-D-xylopyranoside-2-hydroxypropane] the “% blank” value ([1]; IL8 as % of blank) was 53%, the “% viability” value [1] was 97% and the “IL8” value [1] was 145.2 pg/mL. For the same compound, the “% blank (+retinol)” value [2, 3] was 60%, the “IL8” value ([2]; NHEK + 10^−6 M retinol, concentration 2%) was 124.4 pg/mL and the “% viability” value [2, 3] was 104%. The “effect on the irritant reaction of retinol” value ([2]; conclusion in words from the IL8 assay in NHEK) was “reduces the irritant reaction of retinol”.
With `C[C@@H]1C[C@H]2[C@@H]3CCC4=CC(=O)C=C[C@]4(C)[C@@]3(F)[C@@H](O)C[C@]2(C)[C@@]1(O)C(=O)CO` [Dexamethasone, reference compound] the “% blank (+retinol)” value ([2]; NHEK + 10^−6 M retinol, 24 hours, concentration 10^−7M) was 57% and the “IL8” value ([2]; NHEK + 10^−6 M retinol, concentration 10^−7M) was 117.7 pg/mL.
